In the supplement of paper PMC10307832:

Columns and labels:
Assay in all cases: relative viability (nuclei count vs DMSO), 5 days (fraction); higher = more cells survive
Temozolomide = compound: Cn1nnc2c(C(N)=O)ncn2c1=O [Temozolomide]
Outline: (§1)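 Viability was read as treated-well nuclei divided by vehicle-well nuclei, using the median across plates. Lung cancer cell lines in 1536-well plates were kept overnight at 37 °C, pinned with five √10-spaced library-drug doses, and after 5 days were Hoechst-stained, imaged at 4× and counted in MetaXpress. Plates passed only with control CV below 25% and at least one doubling.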

AZD5582 = compound: C[C@@H](C(=O)N[C@@H](C1CCCCC1)C(=O)N2CCC[C@H]2C(=O)N[C@@H]3[C@@H](CC4=CC=CC=C34)OCC#CC#CCO[C@@H]5CC6=CC=CC=C6[C@@H]5NC(=O)[C@@H]7CCCN7C(=O)[C@H](C8CCCCC8)NC(=O)[C@H](C)NC)NC [AZD5582]
Outline: as §1

[1] = compound: Cn1nnc2c(C(N)=O)ncn2c1=O [Temozolomide] + CC(C)C[C@H](NC(=O)[C@H](Cc1ccccc1)NC(=O)c1cnccn1)B(O)O [Bortezomib] (partner 0.002 µM)
Outline: (§2)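 Relative viability was taken as the ratio of nuclei in treated wells to nuclei in vehicle wells. Lung cancer cell lines in 1536-well plates received compounds by pin tool one day after seeding, either one drug alone or a fixed anchor-drug dose plus five library-drug doses (not always all listed) in √10 steps. Nuclei were counted on 4× images after 5 days of treatment, and values are medians of duplicate plates.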

AZD5582 + Alpelisib = compound: C[C@@H](C(=O)N[C@@H](C1CCCCC1)C(=O)N2CCC[C@H]2C(=O)N[C@@H]3[C@@H](CC4=CC=CC=C34)OCC#CC#CCO[C@@H]5CC6=CC=CC=C6[C@@H]5NC(=O)[C@@H]7CCCN7C(=O)[C@H](C8CCCCC8)NC(=O)[C@H](C)NC)NC [AZD5582] + Cc1nc(NC(=O)N2CCC[C@H]2C(N)=O)sc1-c1ccnc(C(C)(C)C(F)(F)F)c1 [Alpelisib] (partner 2 µM)
Outline: as §2

Cell Line	relative viability (Temozolomide; 0.2 µM)	relative viability (Temozolomide; 0.6325 µM)	relative viability (Temozolomide; 2 µM)	relative viability (Temozolomide; 6.325 µM)	relative viability (Temozolomide; 20 µM)	relative viability (AZD5582; 0.001581 µM)	relative viability (AZD5582; 0.005 µM)	relative viability (AZD5582; 0.01581 µM)	relative viability (AZD5582; 0.05 µM)	relative viability ([1]; first compound 0.2 µM)	relative viability ([1]; first compound 0.6325 µM)	relative viability ([1]; first compound 2 µM)	relative viability ([1]; first compound 6.325 µM)	relative viability ([1]; first compound 20 µM)	relative viability (AZD5582 + Alpelisib; first compound 0.001581 µM)	relative viability (AZD5582 + Alpelisib; first compound 0.005 µM)	relative viability (AZD5582 + Alpelisib; first compound 0.01581 µM)	relative viability (AZD5582 + Alpelisib; first compound 0.05 µM)
NCI-H650	1.01	0.975	1.02	0.974	0.913	0.842	0.982	0.542	0.564	1.18	1.08	0.787	0.807	0.941	1.06	0.934	0.997	0.863
LC-2-ad	1.06	1.09	1.04	0.971	0.78	0.997	1.09	0.965	1.03	1.17	0.984	1.02	0.945	0.945	0.911	0.98	0.834	1.11
NCI-H1299	1.03	1.04	1.07	1.03	1.03	1	1.02	1	0.991	1.07	1.06	1.04	1.02	1.02	1.01	1.11	1.07	1.03
NCI-H3122	1.02	1.03	1.06	0.945	0.97	0.938	1.02	1	0.265	1.01	1.1	1.04	0.937	1.04	0.774	0.858	0.836	0.307
EBC-1	0.997	1.01	1.06	0.917	1.09	0.867	0.95	0.964	0.948	0.601	0.577	0.549	0.544	0.575	0.754	0.866	0.869	0.857
NCI-H441	1.25	1.06	1.29	0.997	1.15	0.77	0.954	0.869	0.982	0.88	0.336	0.722	0.363	0.44	0.511	0.709	0.594	0.615
LOU-NH91	0.856	0.979	0.993	0.926	0.786	0.924	0.944	0.882	0.925	0.487	0.514	0.565	0.543	0.456	0.752	0.747	0.787	0.775
LXF-289	1.04	0.959	1.01	1.03	0.892	0.958	1.01	0.968	1	1.01	1.03	1.05	0.928	0.934	1	1.04	0.988	1.07
HCC-827	1.08	1.05	1.05	1	0.177	1.03	1.07	0.991	0.993	1.2	1.1	1.02	1.05	0.32	0.898	1.02	0.985	1.04
RERF-LC-KJ	0.982	1	1.04	0.978	1.01	0.715	0.668	0.912	0.802	1.13	1.3	1.17	1.09	1.08		0.532	0.781	0.639
NCI-H2228	1.19	0.928	1.15	0.881	1.05	1.01	1.05	0.942	0.538	1.15	1.03	1.02	0.956	1.02	0.776	0.625	0.924	0.365
SW 1573	0.998	0.992	1.07	0.948	0.971	0.939	1.04	1.03	1.13	0.949	1.12	1.05	1.19	1.18	0.856	0.705	0.673	1.01
NCI-H1792	1.22	1.02	1.07	0.854	1.07	0.754	0.971	0.712	1.21	0.969	0.988	1.01	0.641	0.953	0.616	0.738	0.651	0.939
ChaGo-K-1	1.06	0.983	1.08	0.933	0.928	0.978	1.02	0.971	0.975	1.17	0.955	1.21	0.967	0.985				
NCI-H1650	0.955	0.938	0.933	0.952	0.773	0.87	1.05	0.899	0.759	0.199	0.175	0.205	0.167	0.196				
HARA	0.979	1.02	1.05	0.886	0.831	0.974	1.1	0.746	0.662	1.26	1.16	1.24	1.14	1.05	0.75	0.783	0.866	0.701
SW 900	1.07	1.1	0.984	0.772	0.793	0.628	0.851	0.684	0.466									
NCI-H520	1.06	0.999	1.13	0.981	0.97	0.955	1.05	0.947	1.1	0.733	0.688	0.768	0.636	0.548	0.97	0.89	0.838	1.07

Cell Line	relative viability (Temozolomide; 0.2 µM)	relative viability (Temozolomide; 0.6325 µM)	relative viability (Temozolomide; 2 µM)	relative viability (Temozolomide; 6.325 µM)	relative viability (Temozolomide; 20 µM)	relative viability (AZD5582; 0.001581 µM)	relative viability (AZD5582; 0.005 µM)	relative viability (AZD5582; 0.01581 µM)	relative viability (AZD5582; 0.05 µM)	relative viability ([1]; first compound 0.2 µM)	relative viability ([1]; first compound 0.6325 µM)	relative viability ([1]; first compound 2 µM)	relative viability ([1]; first compound 6.325 µM)	relative viability ([1]; first compound 20 µM)	relative viability (AZD5582 + Alpelisib; first compound 0.001581 µM)	relative viability (AZD5582 + Alpelisib; first compound 0.005 µM)	relative viability (AZD5582 + Alpelisib; first compound 0.01581 µM)	relative viability (AZD5582 + Alpelisib; first compound 0.05 µM)
ABC-1	1.07	0.925	1.08	0.958	1.02	0.898	1.03	0.767	0.936	0.351	0.274	0.383	0.315	0.256	1.17	1.15	1.07	1.03
NCI-H1734	1.12	1.05	1.06	0.932	0.976	0.968	1.11	1.03	1.23	1.07	0.871	0.963	0.771	0.949	0.729	0.761	0.705	0.903
EKVX	0.618	0.97	0.967	0.921	0.66	0.957	1.13	0.794	1.01	0.991	1.1	1.06	0.996	0.884	0.868	1.03	0.82	1.08
NCI-H1915	1.09	0.987	0.946	0.602	0.386	0.899	1	0.805	0.947	0.972	0.96	0.933	0.729	0.354	1.01	1.06	1.09	1.13
NCI-H1395	1	0.96	0.906	0.745	0.867	0.866	1		0.988						1.08	1.19		1.39
HCC-366	0.939	1	1.08	0.987	0.992	0.978	1.02	0.978	1.08	1.07	1.07	1.1	1.08	1.06	0.363	0.625	0.389	0.774
LK-2	0.997	1.06	0.961	0.645	0.407	0.766	1.07	0.876	1.23						1.05	1.15	1.28	1.33
NCI-H1648		0.889	0.903	0.746	0.893	0.607	0.894	0.554	0.824									
NCI-H1623		1.18	1.04	0.979	0.66	1.03	1.08	0.995	0.95									
NCI-H2170		1.06	1	0.858	0.582	0.956	0.985	0.987	0.989						0.764	0.809	0.867	0.969
SK-MES-1	1.13	1.02	1.06	1.05	0.889	0.943	1.15	0.972	1.09						0.773	0.995	0.808	0.947
A549	1.04	1.02	0.986	0.913	0.998	0.876	1.01	0.928	0.999						0.713	0.717	0.769	0.835
NCI-H358	0.855	1.02	1	0.904	0.777	0.915	1.17	0.944	0.972						0.725	1.02	0.89	1.02
NCI-H522	0.842	0.985	1.02	0.998	0.915	0.841	1	0.957	0.795									
NCI-H1944	0.946	0.959	1.04	0.919	0.816	0.867	1.04	0.921	1.01						0.834	1.05	0.793	1.11
NCI-H2342	0.827	0.991	1.06	1.03	0.912	0.938	1.01	0.917	1.07									
NCI-H1793		0.919	0.918	0.87	0.636	0.897	1.05	0.822	0.797						0.637	0.856	0.69	0.887
